Test results: PMC4303209, “A novel phosphatidylinositol 3-kinase (PI3K) inhibitor directs a potent FOXO-dependent, p53-independent cell cycle arrest phenotype characterized by the differential induction of a subset of FOXO-regulated genes” (Breast Cancer Research : BCR, 2014)

System: MCF-7 breast cancer cells
Test: Microarray gene expression analysis (Agilent whole human genome 4 x 44K; compound vs DMSO, LIMMA log2 fold change)
Type: cell-based
Details: Apoptosis genes

For Cn1ncc2c(N3CCOCC3)nc(-c3cccc(O)c3)nc21 [ETP-45658], the “HSPD1 log2FC” value (Gene 3329) was 0.324, the “HSPE1 log2FC” value (Gene 3336) was -0.110 and the “HTR2B log2FC” value (Gene 3357) was -0.636. The “IAPP log2FC” value (Gene 3375) was -0.105, the “ID1 log2FC” value (Gene 3397) was -0.206 and the “ID3 log2FC” value (Gene 3399) was -0.237. For the same molecule, the “IFI16 log2FC” value (Gene 3428) was 0.357, the “IFI27 log2FC” value (Gene 3429) was -0.362 and the “IFIT2 log2FC” value (Gene 3433) was 1.724. The “IFIT3 log2FC” value (Gene 3437) was 0.389, the “IFNG log2FC” value (Gene 3458) was -0.055 and the “IGBP1 log2FC” value (Gene 3476) was 0.248. For the same molecule, the “IGF1 log2FC” value (Gene 3479) was 0.046, the “IGF1R log2FC” value (Gene 3480) was 0.075 and the “IGF2R log2FC” value (Gene 3482) was 0.109. The “IGFBP3 log2FC” value (Gene 3486) was -0.114, the “IKBKB log2FC” value (Gene 3551) was 0.231 and the “IL1B log2FC” value (Gene 3553) was -0.057. For the same molecule, the “IL1RN log2FC” value (Gene 3557) was -0.173, the “IL2 log2FC” value (Gene 3558) was -0.036 and the “IL4 log2FC” value (Gene 3565) was -0.060. For the same molecule, the “IL6 log2FC” value (Gene 3569) was 0.421, the “IL6R log2FC” value (Gene 3570) was 0.499 and the “IL6ST log2FC” value (Gene 3572) was 0.387. For the same molecule, the “IL7 log2FC” value (Gene 3574) was 0.329, the “IL10 log2FC” value (Gene 3586) was -0.054 and the “TNFRSF9 log2FC” value (Gene 3604) was -0.082. The “ING2 log2FC” value (Gene 3622) was 0.424, the “INHBA log2FC” value (Gene 3624) was -0.426 and the “INHBB log2FC” value (Gene 3625) was -1.024. For the same molecule, the “INS log2FC” value (Gene 3630) was -0.159, the “INPP5D log2FC” value (Gene 3635) was -0.052 and the “INSL3 log2FC” value (Gene 3640) was -0.299. The “IRAK1 log2FC” value (Gene 3654) was -0.289, the “IRF1 log2FC” value (Gene 3659) was -0.225 and the “IRF3 log2FC” value (Gene 3661) was -0.604. For the same molecule, the “IRF5 log2FC” value (Gene 3663) was 1.125, the “IRF7 log2FC” value (Gene 3665) was 0.214 and the “ITGA1 log2FC” value (Gene 3672) was 0.199. The “ITGA5 log2FC” value (Gene 3678) was -0.764, the “ITGAV log2FC” value (Gene 3685) was 0.634 and the “ITGB1 log2FC” value (Gene 3688) was 0.722. The “ITPR1 log2FC” value (Gene 3708) was 0.270, the “JAG2 log2FC” value (Gene 3714) was 0.300 and the “JAK2 log2FC” value (Gene 3717) was 0.353. For the same molecule, the “JAK3 log2FC” value (Gene 3718) was -0.320, the “JUN log2FC” value (Gene 3725) was -0.912 and the “KCNMA1 log2FC” value (Gene 3778) was 0.256. The “KNG1 log2FC” value (Gene 3827) was -0.104, the “KPNA1 log2FC” value (Gene 3836) was -0.177 and the “KPNB1 log2FC” value (Gene 3837) was 0.586. For the same molecule, the “KRT8 log2FC” value (Gene 3856) was -0.518, the “KRT18 log2FC” value (Gene 3875) was -0.481 and the “LCK log2FC” value (Gene 3932) was -0.268. For the same molecule, the “LEP log2FC” value (Gene 3952) was -0.061, the “LGALS7 log2FC” value (Gene 3963) was -0.300 and the “LIG4 log2FC” value (Gene 3981) was 0.100. The “LMNA log2FC” value (Gene 4000) was -0.311, the “LMNB1 log2FC” value (Gene 4001) was -0.133 and the “LRP6 log2FC” value (Gene 4040) was -0.141. For the same molecule, the “LTBR log2FC” value (Gene 4055) was -0.240, the “LTK log2FC” value (Gene 4058) was -0.048 and the “LYN log2FC” value (Gene 4067) was -0.239. For the same molecule, the “SMAD3 log2FC” value (Gene 4088) was 0.254, the “SMAD6 log2FC” value (Gene 4091) was -0.277 and the “MAL log2FC” value (Gene 4118) was -0.683. For the same molecule, the “MAX log2FC” value (Gene 4149) was -0.288, the “MCF2 log2FC” value (Gene 4168) was 0.044 and the “MCL1 log2FC” value (Gene 4170) was -1.365. For the same molecule, the “MDK log2FC” value (Gene 4192) was -0.110, the “MDM2 log2FC” value (Gene 4193) was -0.059 and the “MECP2 log2FC” value (Gene 4204) was -0.162. For the same molecule, the “MEF2A log2FC” value (Gene 4205) was -0.315, the “MEF2C log2FC” value (Gene 4208) was 0.262 and the “MEF2D log2FC” value (Gene 4209) was -0.705. The “MAP3K5 log2FC” value (Gene 4217) was -0.666, the “MEN1 log2FC” value (Gene 4221) was -0.273 and the “KITLG log2FC” value (Gene 4254) was -0.228. The “MGMT log2FC” value (Gene 4255) was -0.305, the “MIF log2FC” value (Gene 4282) was 0.242 and the “MLH1 log2FC” value (Gene 4292) was 0.538. The “MAP3K9 log2FC” value (Gene 4293) was -0.899, the “MAP3K10 log2FC” value (Gene 4294) was 0.297 and the “MAP3K11 log2FC” value (Gene 4296) was -0.949. The “MMP9 log2FC” value (Gene 4318) was -0.727, the “MNAT1 log2FC” value (Gene 4331) was 0.729 and the “MNT log2FC” value (Gene 4335) was 1.624. For the same molecule, the “MPO log2FC” value (Gene 4353) was 0.046, the “CITED1 log2FC” value (Gene 4435) was -0.078 and the “MSH2 log2FC” value (Gene 4436) was 0.939. For the same molecule, the “MSX1 log2FC” value (Gene 4487) was -0.324, the “MUC1 log2FC” value (Gene 4582) was -0.901 and the “MUC2 log2FC” value (Gene 4583) was -0.262. For the same molecule, the “MUC5AC log2FC” value (Gene 4586) was -0.379, the “MUSK log2FC” value (Gene 4593) was -0.344 and the “MX1 log2FC” value (Gene 4599) was 0.147. For the same molecule, the “MYC log2FC” value (Gene 4609) was 0.554, the “MYD88 log2FC” value (Gene 4615) was -0.689 and the “GADD45B log2FC” value (Gene 4616) was 0.642. The “NBN log2FC” value (Gene 4683) was 0.839, the “NDUFS1 log2FC” value (Gene 4719) was 0.459 and the “NF1 log2FC” value (Gene 4763) was 0.412. For the same molecule, the “NFATC4 log2FC” value (Gene 4776) was 0.112, the “NFE2L2 log2FC” value (Gene 4780) was 0.727 and the “NFKB1 log2FC” value (Gene 4790) was -0.122. For the same molecule, the “NFKBIA log2FC” value (Gene 4792) was -0.281, the “NGFR log2FC” value (Gene 4804) was -0.063 and the “NKX3-1 log2FC” value (Gene 4824) was -0.261. The “NME1 log2FC” value (Gene 4830) was 0.168, the “NME2 log2FC” value (Gene 4831) was 0.216 and the “NME3 log2FC” value (Gene 4832) was -0.214. For the same molecule, the “NMT1 log2FC” value (Gene 4836) was -0.046, the “NODAL log2FC” value (Gene 4838) was -0.110 and the “NOS3 log2FC” value (Gene 4846) was -0.420. For the same molecule, the “NOTCH2 log2FC” value (Gene 4853) was 0.166, the “NPM1 log2FC” value (Gene 4869) was 0.586 and the “NPTX1 log2FC” value (Gene 4884) was -0.350. The “NPY5R log2FC” value (Gene 4889) was -0.068, the “SLC11A2 log2FC” value (Gene 4891) was 0.211 and the “NRAS log2FC” value (Gene 4893) was -0.204. For the same molecule, the “NTF3 log2FC” value (Gene 4908) was -1.251, the “NTRK2 log2FC” value (Gene 4915) was -0.357 and the “NR4A2 log2FC” value (Gene 4929) was 0.761. For the same molecule, the “OCLN log2FC” value (Gene 4950) was 0.639, the “OPA1 log2FC” value (Gene 4976) was 0.527 and the “TNFRSF11B log2FC” value (Gene 4982) was 0.707. The “OSM log2FC” value (Gene 5008) was 0.056, the “P2RX1 log2FC” value (Gene 5023) was -0.067 and the “P2RX4 log2FC” value (Gene 5025) was 0.236. For the same molecule, the “P2RX7 log2FC” value (Gene 5027) was -0.509, the “SERPINB2 log2FC” value (Gene 5055) was -0.075 and the “PAK1 log2FC” value (Gene 5058) was 0.117. The “PAK2 log2FC” value (Gene 5062) was -0.170, the “PARK2 log2FC” value (Gene 5071) was -0.177 and the “PAWR log2FC” value (Gene 5074) was 0.858. For the same molecule, the “PAX3 log2FC” value (Gene 5077) was -0.277, the “PAX4 log2FC” value (Gene 5078) was -0.139 and the “PAX7 log2FC” value (Gene 5081) was -0.260. The “PCNT log2FC” value (Gene 5116) was 0.317, the “PDCD1 log2FC” value (Gene 5133) was -0.432 and the “PDCD2 log2FC” value (Gene 5134) was -0.150. The “PDE1A log2FC” value (Gene 5136) was -0.227, the “PDK1 log2FC” value (Gene 5163) was 0.562 and the “PDK2 log2FC” value (Gene 5164) was 1.064. The “PDK4 log2FC” value (Gene 5166) was 0.792, the “PDPK1 log2FC” value (Gene 5170) was 0.541 and the “PHB log2FC” value (Gene 5245) was -0.244. For the same molecule, the “SERPINB9 log2FC” value (Gene 5272) was -0.261, the “SERPINB10 log2FC” value (Gene 5273) was 0.731 and the “PIK3CA log2FC” value (Gene 5290) was 0.795. For the same molecule, the “PIM1 log2FC” value (Gene 5292) was 1.131, the “PIK3R1 log2FC” value (Gene 5295) was 0.328 and the “PLAGL1 log2FC” value (Gene 5325) was 0.310. For the same molecule, the “PLAGL2 log2FC” value (Gene 5326) was -1.493, the “PLK1 log2FC” value (Gene 5347) was -0.287 and the “PLSCR1 log2FC” value (Gene 5359) was 0.433. For the same molecule, the “PMAIP1 log2FC” value (Gene 5366) was -1.093.
